In patent US12600696B2 (XENIOPRO GMBH, priority 2017, dated 2026):

Key:
Assay type in all cases: cell-based
[1] = system: HPEKp cells (human epidermal keratinocyte progenitors, pooled); assay: alamarBlue proliferation assay with HPEKp cells; settings: 120 h, relative to DMSO basis level 1.0, read-out: weighted arithmetic mean (AVEw) of normalized fluorescence intensity, activity range
Method: (§1) The antiproliferative activities of compounds falling under formula I, formula II, formula III, formula IV and formula V were investigated on cells or cell lines originating from a disorder of the myeloid cell compartment, the neuroendocrine system, the cervix, and the mucosal epithelium, as well as from the skin epithelium. To this end, HL-60 cells, TT cells, HeLa cells, CAL-27 cells and human primary epidermal keratinocytes (HPEK) were seeded into 96-well plates suitable for fluorescence assays (CORNING #3598) at following initial cell numbers: 1000 cells per well for HL-60; 9000 cells per well for TT; 2000 cells per well for HeLa, 2000 cells per well for CAL-27, 2000 cells per well for HPEK. The cells were treated with compounds at indicated final concentrations (diluted from the 1000× stock-solutions in DMSO to a final DMSO concentration of 0.1% v/v) or with the empty carrier DMSO at 0.1% v/v as control for 5 days. At day 5 after starting the treatments the cells were subjected to the alamarBlue® Proliferation Assay (Bio-Rad Serotec GmbH, BUF012B) according to the protocol of the manufacturer. The readout was taken with a multi-well plate-reader in the fluorescence mode with applying a filter for excitation at 560 nm (band width 10 nm) and for emission at 590 nm (band width 10 nm). Resveratrol (RES) treatment was included as control for growth inhibition.
(§2) The assays were performed in duplicate or more replicates of independent single experiments each containing a six-fold replicate for every condition. For every individual plate, the measured fluorescence intensity values of the conditions with compound treatment were normalized against the corresponding equally weighted arithmetic mean of the fluorescence intensity values of the six DMSO treated control wells in order to obtain the relative values to a baseline level of 1.0. The statistical calculations were performed in analogy to the luciferase assay as described above. To this end, two independent outlier analyses were performed according to the methods by Peirce and Chauvenet (Ross, Journal of Engineering Technology 2003, 1-12). Outliers confirmed by at least one of the methods were excluded from the calculations but not more than one value out of six per compound within a single experiment. The weighted arithmetic mean AVEw for each compound was calculated from the normalized values over all independent replicates of the single experiments comprising the six replicates each. The corresponding standard deviation for the weighted arithmetic mean was calculated according to the method described by Bronstein et al. (Bronstein, Semendjajew, Musiol, Mühlig, Taschenbuch der Mathematik, 5th edition 2001 (German), publisher: Verlag Harri Deutsch, Frankfurt am Main and Thun) and was combined with the Gauß′ error propagation associated with the performed calculation for the normalization. The resulting standard deviation is herein referred to as “combined standard deviation”.
HPEKp cells were cultivated according to the protocol of the provider in CnT-Prime epithelial culture medium (CELLnTEC, #CnT-PR, a fully defined, low calcium formulation, completely free of animal or human-derived components) without addition of further components.
(§3) A compound is considered as a growth inhibitor of HPEKp cells, if—at a reference concentration of 10 μM—the weighted arithmetic mean of the normalized fluorescence intensity values after addition of the corresponding combined standard deviation amounts to 0.9 or lower, in particular to 0.8 or lower, 0.7 or lower, 0.6 or lower, 0.4 or lower, and 0.2 or lower, relative to the overall basis level of 1.0. The overall basis level was calculated as the weighted arithmetic mean of all normalized values from the DMSO control measurements in analogy to the calculations performed for the test-compounds. The corresponding combined standard deviation for the DMSO values amounts to less than 1·10^−2.

[2] = system: CAL-27 cells (human tongue squamous cell carcinoma cells); assay: alamarBlue proliferation assay with CAL-27 cells; settings: Homo sapiens, 120 h, 20 μM, 5 days, relative to DMSO baseline level of 1.0, read-out: AVEw, weighted arithmetic mean of normalized fluorescence intensity values (Activity Range), CAL-27 proliferation
Method: as §1, §2
CAL-27 cells were cultivated according to the protocol of the provider (but at 5% instead of 10% CO2) in DMEM medium (Fisherscientific, #11584456) containing 10% fetal bovine serum (Fisherscientific, #15517589).
as §3, with “of CAL-27” for “of HPEKp”, “of 20” for “of 10”

[3] = system: HL-60 cells (human acute myeloid leukemia cells); assay: alamarBlue proliferation assay with HL-60 cells; settings: 120 h, 5 days, relative to DMSO baseline level of 1.0, read-out: AVEw, weighted arithmetic mean of normalized fluorescence intensity values (Activity Range), HL-60 proliferation
How it was run: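 HL-60 cells (1000/well, RPMI 1640 + 10% FBS) exposed to compound in 0.1% DMSO for 5 days, then alamarBlue fluorescence read (ex 560/em 590 nm). Signals normalized to six DMSO wells per plate (baseline 1.0); outliers removed by Peirce/Chauvenet; weighted mean with combined SD; inhibitor criterion judged at 20 μM reference concentration.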

[4] = system: Notch signaling (hNotch1ΔE, human Notch1 receptor) in HeLa cells; assay: Notch reporter assay (luciferase luminescence readout in transfected HeLa cells); settings: Homo sapiens, 20 hours, relative to DMSO baseline level of 1.0, read-out: AVEw, weighted arithmetic mean of double-normalized Notch-reporter luciferase luminescence values (Activity Range)
How it was run: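 HeLa cells were transiently transfected for 24 h with membrane-tethered constitutively active hNotch1ΔE, a CSL-promoter Firefly luciferase reporter and constitutive SV40-Renilla luciferase. Compounds were then applied at 10 μM (0.1% DMSO) for 20 h. Firefly/Renilla dual-luciferase ratios were normalized to DMSO control (baseline 1.0), outliers were excluded, and replicate values were averaged across ≥3 independent experiments.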

SMILES	activity at 10 µM [1] [%]	activity at 20 µM [2] [%]	activity at 20 µM [3] [%]	fold induction at 10 µM [4]
COC(=O)c1ccc(Oc2ccc(C3C[C@@H]4CC[C@H]3C4)cc2)nc1 (stereo partly drawn) [Compound 112, methyl 6-(4-((1S,4R)-bicyclo[2.2.1]heptan-2-yl)phenoxy)nicotinate]	40 to 60	–	–	–
CCCc1ccc(Oc2ccc(C(N)=O)cc2)cc1 [Compound 140, 4-(4-propylphenoxy)benzamide]	80 to 90	–	–	–
CCCCCc1ccc(Oc2ccc(C(=O)NO)cc2)cc1 [Compound 168, N-hydroxy-4-(4-pentylphenoxy)benzamide]	–	0 to 20	0 to 20	1.3 to 1.4
CC(C)c1ccc(Oc2ccc(C(=O)NO)cc2)cc1 [Compound 170, N-hydroxy-4-(4-isopropylphenoxy)benzamide]	–	20 to 40	0 to 20	1.1 to 1.2
O=C(NO)c1ccc(Oc2ccc(C3C[C@@H]4CC[C@H]3C4)cc2)cc1 (stereo partly drawn) [Compound 184, 4-(4-((1S,4R)-bicyclo[2.2.1]heptan-2-yl)phenoxy)-N-hydroxybenzamide]	–	0 to 20	0 to 20	1.3 to 1.4
CCc1ccc(Oc2ccc(C(=O)NC)cc2)cc1 [Compound 190, 4-(4-ethylphenoxy)-N-methylbenzamide]	60 to 70	–	–	–
Cc1ccc(Oc2ccc(C(=O)NO)cn2)cc1 [Compound 266, N-hydroxy-6-(p-tolyloxy)nicotinamide]	–	40 to 60	0 to 20	1.4 to 1.7
CCc1ccc(Oc2ccc(C(=O)NO)cn2)cc1 [Compound 267, 6-(4-ethylphenoxy)-N-hydroxynicotinamide]	–	20 to 40	0 to 20	1.1 to 1.2
CCCc1ccc(Oc2ccc(C(=O)NO)cn2)cc1 [Compound 268, N-hydroxy-6-(4-propylphenoxy)nicotinamide]	–	0 to 20	0 to 20	1.3 to 1.4
CCCCc1ccc(Oc2ccc(C(=O)NO)cn2)cc1 [Compound 269, 6-(4-butylphenoxy)-N-hydroxynicotinamide]	–	0 to 20	0 to 20	1.4 to 1.7
O=C(NO)c1ccc(Oc2ccc(C(F)(F)F)cc2)nc1 [Compound 275, N-Hydroxy-6-(4-(trifluoromethyl)phenoxy)nicotinamide]	–	0 to 20	0 to 20	1.2 to 1.3
O=C(NO)c1ccc(Oc2ccc(C3C[C@@H]4CC[C@H]3C4)cc2)nc1 (stereo partly drawn) [Compound 286, 6-(4-((1S,4R)-bicyclo[2.2.1]heptan-2-yl)phenoxy)-N-hydroxynicotinamide]	–	0 to 20	0 to 20	1.3 to 1.4
CNC(=O)c1ccc(Oc2ccc(C3CC4CCC3CC4)cc2)nc1 (centres unmarked) [Compound 312, 6-(4-((1s,4s)-bicyclo[2.2.2]octan-2-yl)phenoxy)-N-methylnicotinamide]	70 to 80	–	–	–
CC(C)(C)c1ccc(Oc2ncc(C(=O)O)cc2F)cc1 [Compound 424, 6-(4-(tert-butyl)phenoxy)-5-fluoronicotinic acid]	70 to 80	–	–	–
O=C(NO)c1cnc(Oc2ccc(C34CC5CC(CC(C5)C3)C4)cc2)c(F)c1 [Compound 648, 6-(4-((3r,5r,7r)-adamantan-1-yl)phenoxy)-5-fluoro-N-hydroxynictinamide]	–	0 to 20	0 to 20	–
COC(=O)c1ccc(Oc2ccc(C3(C(F)(F)F)CC3)cc2Cl)nc1 [Compound 747, methyl 6-(2-chloro-4-(1-(trifluoromethyl)cyclopropyl)phenoxy)nicotinate]	80 to 90	–	–	–
CCOC(=O)c1ccc(Oc2ccc(C3(C(F)(F)C(F)(F)F)CC3)cc2)nc1 [Compound 749, Ethyl 6-(4-(1-(perfluoroethyl)cyclopropyl)phenoxy)nicotinate]	80 to 90	–	–	–
O=C(NO)c1ccc(Oc2ccc(C3(C(F)(F)F)CC3)cc2)cc1 [Compound 766, N-hydroxy-4-(4-(1-(trifluoromethyl)cyclopropyl)phenoxy)benzamide]	–	0 to 20	0 to 20	–
O=C(NO)c1ccc(Oc2ccc(C3(C(F)(F)C(F)(F)F)CC3)cc2)cc1 [Compound 767, N-hydroxy-4-(4-(1-(perfluoroethyl)cyclopropyl)phenoxy)benzamide]	–	0 to 20	0 to 20	–
O=C(NO)c1ccc(Oc2ccc(C3(C(F)(F)F)CC3)cc2Cl)cc1 [Compound 774, 4-(2-chloro-4-(1-(trifluoromethyl)cyclopropyl)phenoxy)-N-hydroxybenzamide]	–	70 to 80	0 to 20	–
O=C(NO)c1ccc(Oc2ccc(C3(C(F)(F)F)CC3)cc2)nc1 [Compound 802, N-hydroxy-6-(4-(1-(trifluoromethyl)cyclopropyl)phenoxy)nicotinamide]	–	0 to 20	0 to 20	–
O=C(NO)c1ccc(Oc2ccc(C3(C(F)(F)C(F)(F)F)CC3)cc2)nc1 [Compound 803, N-hydroxy-6-(4-(1-(perfluoroethyl)cyclopropyl)phenoxy)nicotinamide]	–	0 to 20	0 to 20	–
O=C(NO)c1cnc(Oc2ccc(C3(C(F)(F)F)CC3)cc2)c(F)c1 [Compound 804, 5-fluoro-N-hydroxy-6-(4-(1-(trifluoromethyl)cyclopropyl)phenoxy)nicotinamide]	–	0 to 20	0 to 20	–
CN(C)C(=O)c1ccc(Oc2ccc(C3(C(F)(F)F)CC3)cc2)nc1 [Compound 820, N,N-Dimethyl-6-(4-(1-(trifluoromethyl)cyclopropyl)phenoxy)-nicotinamide]	–	80 to 90	40 to 60	1.4 to 1.7
CN(C)C(=O)c1cnc(Oc2ccc(C3(C(F)(F)F)CC3)cc2)c(F)c1 [Compound 822, 5-fluoro-N,N-dimethyl-6-(4-(1-(trifluoromethyl)cyclopropyl)phenoxy)nicotinamide]	–	80 to 90	70 to 80	–
